Data from ChEMBL document CHEMBL1201862, “PubChem BioAssay data set” (2004).
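Interpolation was linear, between the two tested concentrations surrounding the appropriate level; five concentrations were tested over 48 hours in 96-well plates. GI50 = concentration required for 50% inhibition of growth.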 Calls of active or inactive are those of the source. Cut-off read from the data, not from the text of the source: active = GI50 up to about 1.1 µM and inactive = higher.

What was measured:
Assay in all cases: NCI-60 cell line screen, 48 h
SK-OV-3 = test system: SK-OV-3
OVCAR-3 = test system: OVCAR-3
NCI-H460 = test system: NCI-H460
COLO 205 = test system: COLO 205
HCT-15 = test system: HCT-15
K562 = test system: K562
HCT-116 = test system: HCT-116
SK-MEL-5 = test system: SK-MEL-5
HL-60 = test system: HL-60
OVCAR-4 = test system: OVCAR-4
SF-539 = test system: SF-539
UACC-62 = test system: UACC-62
EKVX = test system: EKVX
OVCAR-8 = test system: OVCAR-8
UO-31 = test system: UO-31
SNB-19 = test system: SNB-19
IGROV-1 = test system: IGROV-1
SK-MEL-28 = test system: SK-MEL-28

Structure (SMILES)	GI50 (SK-OV-3)	GI50 (OVCAR-3)	GI50 (NCI-H460)	GI50 (COLO 205)	GI50 (HCT-15) [µM]	GI50 (K562)	GI50 (HCT-116)	GI50 (SK-MEL-5)	GI50 (HL-60)	GI50 (OVCAR-4)	GI50 (SF-539)	GI50 (UACC-62)	GI50 (EKVX)	GI50 (OVCAR-8)	GI50 (UO-31)	GI50 (SNB-19)	GI50 (IGROV-1)	GI50 (SK-MEL-28)
O=C(O)c1ccc([I+]c2ccccc2)cc1	> 100 µM (inactive)	> 100 µM (inactive)	> 100 µM (inactive)	> 100 µM (inactive)	> 100	> 100 µM (inactive)	> 100 µM (inactive)	> 100 µM (inactive)	> 100 µM (inactive)	> 100 µM (inactive)	> 100 µM (inactive)	> 100 µM (inactive)	> 100 µM (inactive)	> 100 µM (inactive)	> 100 µM (inactive)	> 100 µM (inactive)	> 100 µM (inactive)	
CCOP(=O)(Cc1ccc(CP(=O)(OCC)OCC)n1C)OCC	> 100 µM (inactive)	> 100 µM (inactive)	> 100 µM (inactive)	> 100 µM (inactive)	> 100	> 100 µM (inactive)		> 100 µM (inactive)	> 100 µM (inactive)	> 100 µM (inactive)	> 100 µM (inactive)	> 100 µM (inactive)	> 100 µM (inactive)	> 100 µM (inactive)	> 100 µM (inactive)	> 100 µM (inactive)	> 100 µM (inactive)	> 100 µM (inactive)
Cc1ccc(C2=CC(=O)c3ccccc3C2=O)n1-c1ccccc1	> 100 µM (inactive)	87.1 µM (inactive)	48 µM (inactive)	> 100 µM (inactive)		53 µM (inactive)	62.1 µM (inactive)	> 100 µM (inactive)	32.8 µM (inactive)	25.6 µM (inactive)	89.9 µM (inactive)	41.9 µM (inactive)	> 100 µM (inactive)	> 100 µM (inactive)		35.6 µM (inactive)	> 100 µM (inactive)	> 100 µM (inactive)
CN(C)c1ccc2c(NCCCCCCNc3ccnc4cc(N(C)C)ccc34)ccnc2c1	> 100 µM (inactive)	13.7 µM (inactive)	6.75 µM (inactive)		> 100	2.74 µM (inactive)	6.55 µM (inactive)	12.2 µM (inactive)	6.7 µM (inactive)	11.9 µM (inactive)	21.5 µM (inactive)	> 100 µM (inactive)	36.1 µM (inactive)	7.29 µM (inactive)	32.3 µM (inactive)	0.605 µM (active)		14.3 µM (inactive)
CCCCC1(C)C=C/C(=C2/C(=O)O/C(=C\C(=O)O)C2=O)O1 (stereo not given)	> 100 µM (inactive)	> 100 µM (inactive)	> 100 µM (inactive)	> 100 µM (inactive)	> 100	> 100 µM (inactive)	> 100 µM (inactive)	> 100 µM (inactive)	> 100 µM (inactive)	> 100 µM (inactive)	> 100 µM (inactive)	> 100 µM (inactive)	> 100 µM (inactive)	> 100 µM (inactive)	> 100 µM (inactive)	> 100 µM (inactive)	> 100 µM (inactive)	> 100 µM (inactive)
CC(C)(C)[Si](C)(C)O/N=C\c1ccc(O[Si](C)(C)C(C)(C)C)cc1	> 100 µM (inactive)	20.2 µM (inactive)	> 100 µM (inactive)	> 100 µM (inactive)	33.3	45.9 µM (inactive)	24.2 µM (inactive)	> 100 µM (inactive)	36.5 µM (inactive)	> 100 µM (inactive)	42.5 µM (inactive)	> 100 µM (inactive)	> 100 µM (inactive)	62.8 µM (inactive)	50.9 µM (inactive)	72.4 µM (inactive)	> 100 µM (inactive)	
Cc1cccc(C)c1CO	> 100 µM (inactive)	> 100 µM (inactive)	> 100 µM (inactive)	> 100 µM (inactive)	> 100	> 100 µM (inactive)	> 100 µM (inactive)		> 100 µM (inactive)	> 100 µM (inactive)	> 100 µM (inactive)	> 100 µM (inactive)	> 100 µM (inactive)	> 100 µM (inactive)	> 100 µM (inactive)	> 100 µM (inactive)	> 100 µM (inactive)	
OCc1c[te]c(-c2ccccc2)c1	> 100 µM (inactive)	15.5 µM (inactive)	31 µM (inactive)		20.2	38.5 µM (inactive)	17.5 µM (inactive)	30.7 µM (inactive)	12.6 µM (inactive)	32 µM (inactive)	28.4 µM (inactive)	31.3 µM (inactive)	99.8 µM (inactive)	34.4 µM (inactive)	23.3 µM (inactive)		> 100 µM (inactive)	63.1 µM (inactive)
C(=N\Nc1ccccc1)/c1nc2ccccc2nc1/C=N/Nc1ccccc1	22 µM (inactive)	16.6 µM (inactive)	13.9 µM (inactive)		4.39	7.6 µM (inactive)	12.7 µM (inactive)	19 µM (inactive)	31 µM (inactive)	27.8 µM (inactive)	14.8 µM (inactive)	12.9 µM (inactive)	22.1 µM (inactive)	6.75 µM (inactive)	32.2 µM (inactive)	18.9 µM (inactive)	12.1 µM (inactive)	17.5 µM (inactive)
COc1cc(C2C(C(=O)Nc3ccccc3)=C(C)NC(C)=C2C(=O)Nc2ccccc2)ccc1O		23 µM (inactive)	43.7 µM (inactive)	24.2 µM (inactive)	43.5	30.6 µM (inactive)	34.5 µM (inactive)		22.4 µM (inactive)	29.1 µM (inactive)	21.6 µM (inactive)		83.4 µM (inactive)	30.1 µM (inactive)	97.1 µM (inactive)	33.7 µM (inactive)	37 µM (inactive)	46.7 µM (inactive)
COC1=CC(C2c3cc4c(cc3[C@@H](Nc3ccc(F)cc3)C3COC(=O)[C@H]23)OCO4)=CC(=O)C1=O (stereo not given in full)	4.46 µM (inactive)	27.7 µM (inactive)	0.608 µM (active)	15.7 µM (inactive)	11.1	10.4 µM (inactive)	9.89 µM (inactive)	9.35 µM (inactive)	2.11 µM (inactive)	39.8 µM (inactive)	4.37 µM (inactive)	5.68 µM (inactive)	20.5 µM (inactive)	10.1 µM (inactive)	7.66 µM (inactive)	5.57 µM (inactive)	14.4 µM (inactive)	19.2 µM (inactive)
CN(C)c1ccc(-c2cc(O)c3cc4c(cc3n2)OCO4)cc1		> 100 µM (inactive)	> 100 µM (inactive)	> 100 µM (inactive)	> 100	> 100 µM (inactive)	> 100 µM (inactive)	> 100 µM (inactive)	> 100 µM (inactive)	> 100 µM (inactive)	> 100 µM (inactive)	> 100 µM (inactive)	> 100 µM (inactive)	> 100 µM (inactive)	> 100 µM (inactive)	> 100 µM (inactive)	> 100 µM (inactive)	> 100 µM (inactive)
